System: GNS166 cells
Test: Microarray whole-transcriptome gene expression analysis
Type: cell-based, human
Settings: DMSO vs SAHA, downregulated
Procedure: Whole-transcriptome analysis was performed from 300 ng of RNA using HuGene-2_0-st-v1 expression array (Affymetrix), which covers 48,226 transcripts. Raw data were first checked for quality purposes through the Affymetrix® Expression Console™ Software v1.4.1 and TAC software v4.0. Then, data were normalized using the Robust Multi-array Average (RMA) and analyzed by Limma tool. Probesets with FDR-corrected p-values smaller than 0.05 were selected. Functional enrichment on Gene Ontology (GO) biological processes was performed on a smaller subset of the differentially expressed genes (corrected p-value < 0.001) by means of Broad Institute GSEA. […] The data that support this study have been deposited in NCBI´s Gene Expression Omnibus and are accessible through GEO series accession number GSE143887.

SMILES: O=C(CCCCCCC(=O)Nc1ccccc1)NO [SAHA, Suberoylanilide hydroxamic acid]
- logFC IRAK1 (transcript TC0X[…].hg.1): -1.235
- logFC B3GALT6 (transcript TC0100006494.hg.1): -0.9983
- logFC HMGN2 (transcript TC0100007463.hg.1): -1.008
- logFC CDCA8 (transcript TC0100007841.hg.1): -1.807
- logFC ERMAP (transcript TC0100008033.hg.1): -2.3938
- logFC KIF2C (transcript TC0100008101.hg.1): -1.858
- logFC CMPK1 (transcript TC0100008190.hg.1): -1.434
- logFC NEXN (transcript TC0100008807.hg.1): -1.823
- logFC HIST2H2AA3 (transcript TC0100009876.hg.1): -1.529
- logFC HIST2H3A (transcript TC0100009877.hg.1): -1.612
- logFC GABPB2 (transcript TC0100009939.hg.1): -1.449
- logFC CKS1B (transcript TC0100010100.hg.1): -1.171
- logFC PMF1 (transcript TC0100010161.hg.1): -1.537
- logFC NUF2 (transcript TC0100010397.hg.1): -2.331
- logFC FAM163A (transcript TC0100010786.hg.1): -1.762
- logFC CENPF (transcript TC0100011581.hg.1): -1.482
- logFC EPHA2 (transcript TC0100013028.hg.1): -1.043
- logFC STMN1 (transcript TC0100013369.hg.1): -1.036
- logFC HIST2H3A (transcript TC0100015701.hg.1): -1.662
- logFC ASPM (transcript TC0100016831.hg.1): -1.487
- logFC DDX59 (transcript TC0100016893.hg.1): -1.42
- logFC NUCKS1 (transcript TC0100017075.hg.1): -1.264
- logFC EIF2D (transcript TC0100017100.hg.1): -1.459
- logFC CD34 (transcript TC0100017142.hg.1): -2.059
- logFC LIN9 (transcript TC0100017523.hg.1): -1.223
- logFC ZBTB8A (transcript TC0100018209.hg.1): -1.532
- logFC HIST2H2AA4 (transcript TC0100018482.hg.1): -1.569
- logFC IAH1 (transcript TC0200006648.hg.1): -1.549
- logFC RRM2 (transcript TC0200006677.hg.1): -1.424
- logFC KCNIP3 (transcript TC0200008464.hg.1): -2.439
- logFC NCAPH (transcript TC0200008502.hg.1): -2.071
- logFC GALNT5 (transcript TC0200009739.hg.1): -2.15
- logFC CFLAR (transcript TC0200010443.hg.1): -1.832
- logFC ADI1 (transcript TC0200011551.hg.1): -2.286
- logFC EVA1A (transcript TC0200013135.hg.1): -1.744
- logFC NMI (transcript TC0200014610.hg.1): -2.309
- logFC SPC25 (transcript TC0200014845.hg.1): -1.44
- logFC SLC16A14 (transcript TC0200015971.hg.1): -1.405
- logFC HJURP (transcript TC0200016099.hg.1): -1.261
- logFC CENPA (transcript TC0200016417.hg.1): -1.421
- logFC SPDYA (transcript TC0200016423.hg.1): -1.919
- logFC ACYP2 (transcript TC0200016447.hg.1): -1.266
- logFC FANCD2 (transcript TC0300006575.hg.1): -1.767
- logFC KIF15 (transcript TC0300007223.hg.1): -1.9928
- logFC ARHGAP31 (transcript TC0300008467.hg.1): -1.69
- logFC FAIM (transcript TC0300008952.hg.1): -1.871
- logFC RTP4 (transcript TC0300009799.hg.1): -1.468
- logFC SUCLG2 (transcript TC0300011436.hg.1): -1.146
- logFC BDH1 (transcript TC0300013751.hg.1): -1.665
- logFC NAALADL2 (transcript TC0300013904.hg.1): -1.839
- logFC KCNMB2 (transcript TC0300013906.hg.1): -1.816
- logFC NEIL3 (transcript TC0400009396.hg.1): -0.9384
- logFC CCNA2 (transcript TC0400011748.hg.1): -1.45
- logFC GPM6A (transcript TC0400012473.hg.1): -1.528
- logFC TRIP13 (transcript TC0500006472.hg.1): -1.825
- logFC NDUFS6 (transcript TC0500006523.hg.1): -0.9474
- logFC IL7R (transcript TC0500007138.hg.1): -2.627
- logFC NNT (transcript TC0500007303.hg.1): -1.728
- logFC CCNB1 (transcript TC0500007665.hg.1): -1.603
- logFC KIF20A (transcript TC0500008777.hg.1): -2.05
- logFC HIGD2A (transcript TC0500009587.hg.1): -1.228
- logFC NSD1 (transcript TC0500009610.hg.1): -1.443
- logFC ARSB (transcript TC0500011228.hg.1): -1.571
- logFC BRD8 (transcript TC0500012162.hg.1): -1.077
- logFC CRHBP (transcript TC0500013193.hg.1): -2.74
- logFC PCBD2 (transcript TC0500013230.hg.1): -1.097
- logFC FAM169A (transcript TC0500013328.hg.1): -1.569
- logFC HIST1H4C (transcript TC0600007268.hg.1): -1.755
- logFC HIST1H2BF (transcript TC0600007282.hg.1): -1.711
- logFC HIST1H4E (transcript TC0600007284.hg.1): -2.005
- logFC HIST1H2AE (transcript TC0600007285.hg.1): -1.564
- logFC HIST1H2AL (transcript TC0600007380.hg.1): -1.235
- logFC GTF3C6 (transcript TC0600009140.hg.1): -2.124
- logFC HIST1H4B (transcript TC0600011123.hg.1): -1.235
- logFC HIST1H3B (transcript TC0600011124.hg.1): -1.868
- logFC HIST1H3D (transcript TC0600011135.hg.1): -1.444
- logFC HIST1H2BG (transcript TC0600011136.hg.1): -1.568
- logFC HIST1H4H (transcript TC0600011145.hg.1): -1.26
- logFC HIST1H2BJ (transcript TC0600011184.hg.1): -1.604
- logFC HIST1H2BK (transcript TC0600011185.hg.1): -1.804
- logFC PSMB8 (transcript TC0600011507.hg.1): -1.143
- logFC DNPH1 (transcript TC0600011870.hg.1): -1.264
- logFC FBXO5 (transcript TC0600013602.hg.1): -1.287
- logFC HIST1H2AG (transcript TC0600014083.hg.1): -2.001
- logFC NUDT3 (transcript TC0600014283.hg.1): -1.135
- logFC LANCL2 (transcript TC0700007610.hg.1): -1.812
- logFC GTF2I (transcript TC0700008010.hg.1): -1.635
- logFC MEPCE (transcript TC0700008542.hg.1): -1.622
- logFC CAV1 (transcript TC0700008873.hg.1): -0.9681
